Laboratory results published in patent US20040132751A1, “Use of desoxypeganine for treating central nervous system symptoms resulting from intoxications by psychotrops” (priority 2001, published 2004).

System: rats
Assay: animal experiments: recovery of cognitive abilities in rats after administration of deoxypeganine
Type: in vivo
Settings: restoration did not occur, or occurred only considerably later, in untreated control animals

With `c1ccc2c(c1)CN1CCCC1=N2` [deoxypeganine, 1,2,3,9-tetrahydropyrrolo[2,1-b]quinazoline] the “recovery of cognitive abilities” value was “able to bring about a recovery of cognitive abilities”.
